In patent publication US20250134095A1, “COMPOSITIONS FOR ORGAN AND TISSUE PRESERVATION” (Albert Einstein College of Medicine, priority 2021, published 2025):
“Also recorded” adds a separate entry of the source. Peptide text beside a SMILES is read from it. * marks the point of attachment. Cbz = O=C(OCc1ccccc1)*; CH2F = FC*

Key:
mouse kidneys = experiment: TUNEL staining for cell death in cold stored mouse kidneys; conditions: 2 mg/kg total mouse weight in University of Wisconsin cold preservation solution, flush at organ recovery and storage, 72 hours cold storage
Text: (§1) Methods: TUNEL Staining and Quantification. Frozen kidney sections were fixed with 4% paraformaldehyde and stained according to standard protocols for the In Situ Cell Death Detection Kit, TMR red (Millipore Sigma). The number of DAPI positive and TUNEL positive cells were quantified using cell counter macros in ImageJ across mouse, pig, and human samples.
(§2) Murine and Porcine Kidney Recoveries. Mouse and pig kidneys were recovered using standard organ recovery protocols. Prior to flushing the abdominal cavity with preservation solution, mice and pigs were given heparin to help increase flow and prevent clotting within the system.
Bax KO or Wildtype mice (3× per group) were euthanized and then organs recovered following standard organ transplant procedures. […] At the proscribed time points, kidneys were snap frozen for subsequent cell death assessment by fluorescent TUNEL staining of frozen sections collected on an EVOS2 scope. Quantification of TUNEL staining was performed with custom matlab code following standard image analysis procedures.
(§3) Mice were flushed with BAI supplemented University of Wisconsin solution (2 mg/kg total mouse weight) at time of organ recovery. Mouse kidneys were stored in the same concentration of BAI1 supplemented preservation solution that was used to flush the mice at time of organ harvest. Pig kidneys were flushed with 500 mL of University of Wisconsin solution supplemented with BAI1 at 10 μg/mL. They were then stored at 4° C. in 500 mL of University of Wisconsin solution supplemented with BAI1 at 10 μg/mL for 72 hours.

pig kidneys = experiment: TUNEL staining for cell death in cold stored pig kidneys; conditions: flushed and stored at 4° C. in University of Wisconsin solution with 10 μg/mL, 72 hours
Text: as §1, §2, §3

human organ culture = experiment: Cell death in human organ culture model (kidney)
Method: as §1
To better appreciate how kidneys respond to cold ischemia, a series of […] kidneys was biopsied at times from 12 to 72 hours of cold storage. To decreased observed cell death, a Bax inhibitor (BAI1) was tested in a human organ culture model.
To assess the extent of cell death during cold preservation, a series of eleven human kidneys were repeatedly biopsied at times from 12 to 72 hours of cold storage. […] Cell death increased over time and became apparent in marginal donors between 30-36 hours of cold storage. Human kidneys with the cell death phenotype were also shown to have distinct upregulation of metabolites (e.g. xylose, isothreonic acid, 3-hydroxy-3-methylglutaric acid, conduritol-beta-epoxide, hippuric acid, pseudo uridine, hydroxyproline dipeptide, 4-hydroxyhippuric acid) as compared to the younger, healthier cohort of organs.

| SMILES | cell death during prolonged cold storage (TUNEL staining) (mouse kidneys) | cell death during prolonged cold storage (TUNEL staining) (pig kidneys) | cell death in human organ culture after a period of warm injury (human organ culture; after a period of warm injury) | cell death in human organ culture during cold storage (human organ culture; during cold storage) |
| --- | --- | --- | --- | --- |
| OC(CN1CCNCC1)Cn1c2ccc(Br)cc2c2cc(Br)ccc21 (stereo not shown) [BAI1] | prevents cell death; also recorded: abrogates cell death | prevents cell death | significantly decreased cell death | significantly decreased cell death |
| COC(=O)C[C@H](NC(=O)[C@H](C)NC(=O)[C@@H](NC(=O)OCc1ccccc1)C(C)C)C(=O)CF [Z-VAD-FMK] (Cbz-Val-Ala-Asp(OMe)-CH2F) | did not appear to reduce the amount of cell death |  |  |  |
| CCOC(=O)c1ccc(NC2CCCCC2)c(N)c1 [ferrostatin-1] | did not appear to reduce the amount of cell death |  |  |  |
| CN1C(=O)C(Cc2c[nH]c3ccccc23)NC1=S (stereo not shown) [necrostatin-1] | did not appear to reduce the amount of cell death |  |  |  |
